In US5158942A, “Process of using phospholipid derivatives to inhibit multiplication of the human immunodeficiency virus” (Boehringer Mannheim GmbH, priority 1989, dated 1992):
≈ marks a conversion by molar mass, not a printed value.

Tested on: not given
Test: not given
Conditions: M. S. Hirsch, J. Infect. Dis., 157, 427-431/1988; cited from earlier work

SMILES	toxicities in the therapeutic range
Cc1cn([C@H]2C[C@H](N=[N+]=[N-])[C@@H](CO)O2)c(=O)[nH]c1=O [AZT, 3'-azido-3'deoxythymidine]	very severe toxicities occurring even in the therapeutic range

Tested on: HIV
Test: Inhibition of HIV replication in HIV infected human T-lymphoma cells or human fetal lung cells; amount of virus determined by new infection of human fetal lung cells
Type: cell-based
Conditions: Human immunodeficiency virus 1, readout: new infection of human fetal lung cells, read-out: IC50-value (concentration which results in an inhibition of the replication of 50%)
Procedure: HIV infected human T-lymphoma cells or human fetal lung cells were treated with the inventive compound by using different concentration ranges of the test compound. The amount of the viruses was then determined by way of new infection of human fetal lung cells. The decrease of the resulting positive HIV-infected cells was regarded as a measure for the antiviral activity of the compound tested.
The following table gives the corresponding concentration, which results in an inhibition of the replication of 50% (IC50 -value): […]

IC50 [µg/mL]	SMILES
2 (≈ 3.26 µM)	CCCCCCCCCCCCOC(COP(=O)([O-])OCC[N+](C)(C)C)CS(=O)(=O)CCCCCCCCCC (stereo not shown) [Example 9, 3-Decylsulphonyl-2-dodecyloxypropyl-1-phosphoric acid monocholine ester]
4 (≈ 6.39 µM)	CCCCCCCCCCCCSCC(CSCCCCCCCCCCCC)OP(=O)([O-])OCC[N+](C)(C)C [Example 20, 1,3-Bis-(dodecylmercapto)-propyl-1-phosphoric acid monocholine ester]
20 (≈ 31.3 µM)	CCCCCCCCCCCCCCCCSCC(COP(=O)([O-])OCC[N+](C)(C)C)OCCCCCCCCCC (stereo not shown) [Example 5, 3-Hexadecylmercapto-2-decyloxypropyl-1-phosphoric acid monocholine ester]
20 (≈ 35.2 µM)	CCCCCCCCCCCSCC(COP(=O)([O-])OCC[N+](C)(C)C)OCCCCCCCCCC (stereo not shown) [Example 11, 3-Undecylmercapto-2-decyloxypropyl-1-phosphoric acid monocholine ester]
5 (≈ 8.21 µM)	CCCCCCCCCCCCSCC(COP(=O)([O-])OCC[N+](C)(C)C)NC(=O)CCCCCCCCCC (stereo not shown) [Example 21, 3-Dodecylmercapto-2-decylcarbonylaminopropyl-1-phosphoric acid monocholine ester]
4 (≈ 6.56 µM)	CCCCCCCCCCCCCCSCC(COP(=O)([O-])OCC[N+](C)(C)C)OCCCCCCCCCC (stereo not shown) [Example 13, 3-Tetradecylmercapto-2-decyloxypropyl-1-phosphoric acid monocholine ester]

Second part, the molecule before the results:

SMILES	IC50 [µg/mL]
CCCCCCCCCCCCC[S+]([O-])CC(COP(=O)([O-])OCC[N+](C)(C)C)OCCCCCCCCCC (stereo not shown) [Example 25, 3-Tridecylsulphinyl-2-decyloxypropyl-1-phosphoric acid monocholine ester]	2 (≈ 3.27 µM)
CCCCCCCCCCCOC(COP(=O)([O-])OCC[N+](C)(C)C)C[S+]([O-])CCCCCCCCCCC (stereo not shown) [Example 24, 3-Undecylsulphinyl-2-undecyloxypropyl-1-phosphoric acid monocholine ester]	4 (≈ 6.69 µM)
CCCCCCCCCCCCCCCCOC(COP(=O)([O-])OCC[N+](C)(C)C)CSCCCCCCCCCC (stereo not shown) [Example 6, 3-Decylmercapto-2-hexadecyloxypropyl-1-phosphoric acid monocholine ester]	50 (≈ 78.4 µM)
CCCCCCCCCCCC[S+]([O-])CC(COP(=O)([O-])OCC[N+](C)(C)C)OCCCCCCCCCC (stereo not shown) [Example 22, 3-Dodecylsulphinyl-2-decyloxypropyl-1-phosphoric acid monocholine ester]	4 (≈ 6.69 µM)
CCCCCCCCCCCCOC(COP(=O)([O-])OCC[N+](C)(C)C)CSCCCCCCCCCCCC (stereo not shown) [Example 4, 3-Dodecylmercapto-2-dodecyloxypropyl-1-phosphoric acid monocholine ester]	4 (≈ 6.56 µM)
CCCCCCCCCCCCS(=O)(=O)CC(COP(=O)([O-])OCC[N+](C)(C)C)OCCCCCCCCCC (stereo not shown) [Example 8, 3-Dodecylsulphonyl-2-decyloxypropyl-1-phosphoric acid monocholine ester]	2 (≈ 3.26 µM)
